From US7109175B1, “Specific steady-state R-type CA2+ channel blockers and use thereof” (Universite de Sherbrooke, priority 2000, dated 2006)
Entries after “also recorded” stand apart in the source; their conditions may differ.

Columns and labels:
[1] = system: TTX-sensitive fast Na^+ current; assay: Whole-cell voltage clamp, TTX-sensitive fast Na+ current in heart cells; format: cell-based, chick
Experimental: Single cells of different types in culture were prepared from biopsies of human, chick and rabbit. Known and accepted methods for the isolation of fast Na^+ current, T, L and R-type Ca^2+ channels as well as delayed outward K^+ current were used (Bkaily 1994, supra).
The compounds to be tested are added to the appropriate extracellular solution after recording a stable ionic current or normal steady-state level of […]. The effect of different concentrations of compounds are tested on the different type of current and [Ca]i of the different cell types. The effect of each concentration of the compounds in function of the time of exposure are then determined. Once the steady-state effect is reached, the second concentration is added, etc.
In one series of experiments (n=5), the effect of different concentrations of MV8608 (10^−11M to 10^−7M) on the TTX-sensitive fast Na^+ current were tested using the whole-cell voltage clamp technique and experimental conditions reported elsewhere (Bkaily et al., 1988, supra; 1993, supra).
In a series of experiments (n=5), we tested the effect of another MV compound MV8612 on the TTX-sensitive fast Na^+ current (INa) of embryonic chick heart cells using the whole-cell voltage clamp technique described above.

[2] = system: R-type Ca^2+ channel; assay: Cell-attached single channel recording of R-type Ca2+ channel, human aortic VSM cell line; format: cell-based; conditions: for R-type channel opening (probability, duration, frequency) / R-type single channel current: 10^−7M extra-patch pipette application; for R-type single channel amplitude and probability of opening: nifedipine 10^−6M present
Experimental: Also, for the R-type Ca^2+ channel current, the effect of the compounds are tested on the R-type Ca^2+ channel amplitude, voltage dependency and probability of opening, by using the cell-attached patch clamp technique (Bkaily 1994, supra; 1996, supra) and intra and extra patch pipette application of the drug.
In another series of experiments (n=7), using the cell attached patch clamp technique (Bkaily G. 1994, supra; Bkaily G. et al., 1996, supra), the effect of 10^−7M of MV8608 on the R-type Ca^2+ channel in human aortic vascular smooth muscle cell line was tested. […] In a second series of experiments (n=3), the patch pipette solution was free of MV8608 and after recording the single channel activities at different voltages, MV8608 (final concentration of 10^−7M) was applied to the extra-patch pipette solution containing 140 mM KCl (where the rest of the cell is bathing). This experiment was designed to verify whether MV8608 crossed the cell membrane and if so, whether its effect from the internal side of the channel under the patch is the same as that when applied at the outer side thereof. […] Such a pattern of increase of probability of opening and the open duration accompanied with the sporadic decrease of the single channel current amplitude has never been observed when MV8608 was applied at the outer side of the single channel under the patch pipette.
In another series of experiments (n=7), the effect of 10^−7M of MV8612 was tested on the R-type Ca^2+ in human aortic VSM cells, using the single channel cell attached recording technique and intra and extra patch pipette application of drugs.
In one series of experiments (n=3), MV8612 (total concentration, 10^−7M) was only applied to the patch pipette. […] As for MV8608, in one series of experiments (n=4), MV8612 (10^−7M) was only applied to the extra-patch pipette, in order to verify if the compound penetrates into the cytosol and if so, how it affects the R-type Ca^2+ channel activity.

[3] = system: R-type Ca^2+ channel; assay: Fura-2 [Ca]i, human aortic vascular smooth muscle cells (cell line and freshly isolated); format: cell-based; conditions: for sustained increase of [Ca]i induced by high PAF: PAF 10^−7M
Description: This sustained increase of Ca^2+ induced by depolarization of the cell membrane or hormones such as PAF, ET-1 and bradykinin is due to the increase of Ca^2+ influx through the R-type Ca^2+ channels at the sarcolemmal membrane and/or the nuclear membrane (Bkaily G., 1994, supra; 1996, supra; 1997a–d, supra). Using Ca^2+ fluorescence probes Fura-2 or Fluo-3 and 2 and three-dimension Ca^2+ imaging techniques (Bkaily G., 1994, supra; 1996, supra; 1997a–d, supra), the effect of hormones and drugs could be easily tested. These two methods are used with single cells of different types as described above.
In another series of experiments we tested the effect of MV8608 (10^−9M) on R-type Ca^2+ channels stimulation-induced sustained increase of total intracellular Ca^2+ by sustained depolarization (FIGS. 15 to 19), by PAF (10^−9M) (FIGS. 16 to 19 and 21 to 22), by ET-1 (10^−9M) (FIGS. 16 and 19) and bradykinin (BK, 10^−6M) (FIGS. 20 and 21), in embryonic chick heart cells (FIGS. 15, 16, 19 and 20), 19-week-old human fetal heart cells (FIGS. 15, 17, 18 and 20), rabbit aortic vascular smooth muscle (VSM) cells (FIGS. 20 and 21), human aortic VSM cell-line (FIG. 23) and freshly isolated (FIG. 22) as well as in freshly isolated aortic endothelial cells (FIG. 22).
In some experiments, the stimulation of the R-type Ca^2+ channel was elevated by increasing the concentration of PAF from 10^−9M up to 10^−7. […] Only a concentration of 10^−6M of MV8608 was able to block the high PAF effect on the sustained increase of [Ca]i (FIG. 23).
Using Fura-2 [Ca]i measurement technique, in one series of experiments we tested the effect of MV8612 (10^−9M) on the stimulation of R-type Ca^2+-induced sustained increase of [Ca]i by sustained depolarization (FIGS. 26 and 27), PAF (10^−9M, FIG. 34) and ET-1 (FIGS. 33 and 34).

[4] = system: R-type Ca^2+ channel; assay: Confocal Fluo-3 3-dimension measurement of [Ca]c and [Ca]n, chick heart cells and human aortic VSM cell line; format: cell-based; conditions: for sustained increase of [Ca]c and [Ca]n induced by high PAF: PAF 10^−7M; for sustained depolarization induced sustained increase of [Ca]c and [Ca]n: heart cells, FIG. 29 panel A; for prevention of sustained increase of [Ca]c and [Ca]n: chick heart cells and human aortic VSM cell line
[5] = system: human aortic vascular smooth muscle cell line; assay: Spontaneous proliferation of human aortic vascular smooth muscle cell line; format: cell-based; conditions: 10^−8M
[6] = system: writhing response in mice; assay: Writhing response in mice (acetic acid, acetylcholine, kaolin); format: in vivo; conditions: for acetic acid, acetylcholine and kaolin-induced writhing response: MV 8612 0.25 to 2.5, MV 8608 2.7, i.p., 30 min prior
Description: The antinociceptive actions of compound MV 8612 and MV 8608 were investigated in different models of nociception in mice as reported previously (Vaz et al., 1996, J. Pharmacol. Exp. Ther. 278:304–312).

[7] = sustained depolarization and PAF 10^−7M

C[C@]12CC[C@H](O)CC1=CC[C@@H]1[C@@H]2CC[C@]2(C)[C@H]3[C@@H]4OC[C@H]3O[C@@H](O)[C@]12O4 [MV8608, (15R, 16R, 20S)-14, 16:15,20:16,21-triepoxi-15,16-seco 14β, 17α-pregn-5-ene-3β, 15-diol]
effect on TTX-sensitive fast Na+ current ([1]; 10^−11M to 10^−7M, single heart cell, n=5): no effect; also recorded: absence of the effect
R-type channel opening (probability, duration, frequency) [2]: increased the probability and duration of opening
R-type single channel current [2]: spontaneous decrease and release of the blockade of the single channel current
R-type single channel conductance ([2]; 10^−7M in the patch pipette): without affecting its single channel conductance
R-type single channel amplitude and probability of opening ([2]; 10^−7M in the patch pipette): decreased the single channel amplitude and probability of opening
PAF induced sustained increase of [Ca]i ([3]; 10^−9M, PAF 10^−9M, freshly isolated human aortic VSM cells): blockade
sustained increase of [Ca]i induced by high PAF ([3]; MV8608 10^−6M, human aortic VSM cell line): able to block; also recorded: blockade
sustained increase of [Ca]i induced by high PAF ([3]; MV8608 10^−9M): failed to significantly decrease
cytosolic and nuclear Ca2+ sustained overload ([4]; 10^−7M, KCl 30 mM and PAF, nifedipine present): blocked both the cytosolic and nuclear Ca^2+ sustained overload
prevention of depolarization-induced stimulation of R-type channel ([Ca]c, [Ca]n) ([4]; 10^−8 M and 10^−7 M): prevented the stimulation of the R-type Ca^2+ channel
prevention of high PAF action ([4]; PAF 10^−7 M, 10^−9M): succeeded in preventing the high PAF action
sustained increase of [Ca]c and [Ca]n induced by high PAF ([4]; MV8608 10^−6M): significantly decrease; also recorded: blocked
sustained depolarization induced sustained increase of [Ca]c and [Ca]n [4]: blocked completely
prevention of sustained increase of [Ca]c and [Ca]n [4, 7]: preventive effect
spontaneous proliferation [5]: significantly decreased
acetic acid, acetylcholine and kaolin-induced writhing response [6]: only partial or even no antinociceptive action

COC1CC(OC2C(C)OC(O[C@H]3CC[C@@]4(C)C(=CC[C@@H]5[C@@H]4CC[C@]4(C)[C@H]6[C@@H]7OC[C@H]6O[C@@H](O)[C@]54O7)C3)CC2OC)OC(C)C1OC1CC(OC)C(OC2CC(OC)C(OC3OC(C)C(OC(C)=O)C(OC)C3OC(C)=O)C(C)O2)C(C)O1 (stereo partly drawn) [MV8612]
further decrease of INa amplitude ([1]; 10^−7M, embryonic chick heart cells): no further decrease
decrease of INa amplitude ([1]; 10^−8M, embryonic chick heart cells): 15%
effect on fast Na+ current ([1]; 10^−9M, embryonic chick heart cells): had no effect
R-type channel opening (probability, duration, frequency) [2]: rapidly increased the R-type Ca^2+ opening frequence
R-type single channel current [2]: small decrease in the single channel current
R-type single channel amplitude and probability of opening ([2]; 10^−7M in the patch pipette): significantly decreased
decrease of R-type single Ca2+ channel current amplitude ([2]; 10^−7M via the patch pipette, n=3): about 75 % of the control value
extent of blocking of R-type channel amplitude and probability of opening, comparison ([2]; intra-patch pipette, MV8612 versus MV8608): superior to that of MV8608
prevention of sustained increase of [Ca]i ([3]; 10^−8M, KCl 30 mM and PAF 10^−7M, human aortic VSM cell line): found to prevent; also recorded: preventive effect
sustained increase of [Ca]c and [Ca]n induced by high PAF ([4]; MV8612 10^−8M): blocked
sustained depolarization induced sustained increase of [Ca]c and [Ca]n [4]: blocked completely
potency of blocking sustained increase of [Ca]c and [Ca]n, comparison [4, 7]: more potent blocker than MV8608
potency of preventing stimulation of R-type channel, comparison [4, 7]: equipotent in preventing
prevention of sustained increase of [Ca]c and [Ca]n [4, 7]: preventive effect
spontaneous proliferation [5]: significantly decreased
acetic acid, acetylcholine and kaolin-induced writhing response [6]: dose-dependent inhibition
acetic acid-induced writhes, i.c.v. ([6]; MV 8612 4.2 to 42 nmol/site, morphine 0.26 to 13 nmol/site): dose-related antinociception
ID50 ACETIC ACID ([6]; i.p., mice, acetic acid-induced writhes): 2.4 (1.9–2.6) μmol/kg
ID50 ACETYLCHOLINE ([6]; i.p., mice, acetylcholine-induced writhes): 2.2 (2.0–2.3) μmol/kg
ID50 KAOLIN ([6]; i.p., mice, kaolin-induced writhes): 0.4 (0.3–0.6) μmol/kg
potency versus morphine, i.c.v., acetic acid-induced writhes ([6]; less potent than morphine): about 12 fold
potency against kaolin-induced pain versus the other writhing models ([6]; more potent): about 2 fold
potency versus morphine and indomethacin, kaolin-induced writhes ([6]; more potent): about 2 fold
